Measurements from ChEMBL document CHEMBL4000204, “Improving potency and metabolic stability by introducing an alkenyl linker to pyridine-based histone deacetylase inhibitors for orally available RUNX3 modulators” (Eur J Med Chem, 2017).

Tests used:
in vitro [1] = conditions: mouse, liver microsomes
in vitro [2] = conditions: mouse, liver microsomes; remark: listed apart in the source

Row | SMILES | remaining at 0.5 h, 1000 µM (in vitro [1]) [%] | remaining at 0.5 h, 1000 µM (in vitro [2]) [%]
1 | O=C(/C=C/c1cccn(CCCc2ccc3ccccc3c2)c1=O)NO | 35.5 | 90.3
2 | O=C1CC2(CCCC2)CC(=O)N1CCCCN1CCN(c2ncccn2)CC1 [BUSPIRONE] | 0.29 | 99.1
